Reference: PubChem BioAssay AID228 (DTP/NCI, 2004)
Where “and” joins values, the source holds several entries; their conditions need not be identical. Equal values may be shown once. Records with an inconclusive call do not appear.

Tested on: BDF1 mice, Friend leukemia sc, tumor weight T/C
Experiment: NCI In Vivo Anticancer Drug Screen. Data for tumor model Friend Virus Leukemia (Solid) (subcutaneous) in B6D2F1 (BDF1) mice
Conditions: endpoint: mean tumor weight, higher = larger tumour
Procedure: The antitumor activity of compounds was measured in mice bearing transplantable tumors. Survival or tumor size were measured and the results are expressed as the measurement made in the treated group (T) divided by the measurement made in the vehicle treated control group (C). The tumor model used in this assay is Friend Virus Leukemia (Solid) (subcutaneous) in B6D2F1 (BDF1) mice

[1] = dose: 125.0 mg/kg/injection, schedule: Q01DX011 (ip), vehicle: saline
[2] = dose: 250.0 mg/kg/injection, schedule: Q01DX011 (ip), vehicle: saline
[3] = dose: 25.0 mg/kg/injection, schedule: Q01DX011 (ip), vehicle: carboxymethylcellulose (CMC)
[4] = dose: 50.0 mg/kg/injection, schedule: Q01DX011 (ip), vehicle: carboxymethylcellulose (CMC)
[5] = dose: 100.0 mg/kg/injection, schedule: Q01DX011 (ip), vehicle: carboxymethylcellulose (CMC)
[6] = dose: 18.0 mg/kg/injection, schedule: Q01DX011 (ip), vehicle: carboxymethylcellulose (CMC)
[7] = dose: 75.0 mg/kg/injection, schedule: Q01DX011 (ip), vehicle: saline

## COC(=S)SCN(CSC(=S)OC)c1ccccc1Cl
[1]
  T/C: 95 % of control
[2]
  T/C: 107 % of control

## O=[n+]1c2c(n([O-])c3ccccc31)-c1cccc3cccc-2c13
[3]
  T/C: 87 % of control
[4]
  T/C: 55 % of control
[5]
  T/C: 43 % of control

## C[C@]12CC[C@@H]3c4ccc(O)cc4CC[C@H]3[C@@H]1CC[C@@H]2O
dose: 1.0 mg/kg/injection, schedule: Q01DX011 (sc), vehicle: steriod suspending solution
  T/C: 74 % of control
dose: 5.0 mg/kg/injection, schedule: Q01DX011 (sc), vehicle: steriod suspending solution
  T/C: 104 % of control
dose: 10.0 mg/kg/injection, schedule: Q01DX011 (sc), vehicle: steriod suspending solution
  T/C: 71 % of control
dose: 20.0 mg/kg/injection, schedule: Q01DX011 (sc), vehicle: steriod suspending solution
  T/C: 73 % of control
dose: 40.0 mg/kg/injection, schedule: Q01DX011 (sc), vehicle: steriod suspending solution
  T/C: 61 % of control
dose: 80.0 mg/kg/injection, schedule: Q01DX011 (sc), vehicle: steriod suspending solution
  T/C: 75 % of control
dose: 100.0 mg/kg/injection, schedule: Q01DX011 (sc), vehicle: steriod suspending solution
  T/C: 103 % of control
dose: 150.0 mg/kg/injection, schedule: Q01DX011 (sc), vehicle: steriod suspending solution
  T/C: 106 % of control
dose: 200.0 mg/kg/injection, schedule: Q01DX011 (sc), vehicle: steriod suspending solution
  T/C: 101 % of control
dose: 400.0 mg/kg/injection, schedule: Q01DX011 (sc), vehicle: steriod suspending solution
  T/C: 110 % of control
dose: 500.0 mg/kg/injection, schedule: Q01DX011 (sc), vehicle: steriod suspending solution
  T/C: 86 % of control and 107 % of control

## CS(=O)(=O)OCC(=O)NCCNC(=O)COS(C)(=O)=O
dose: 20.0 mg/kg/injection, schedule: Q01DX011 (ip), vehicle: carboxymethylcellulose (CMC)
  T/C: 93 % of control
dose: 31.0 mg/kg/injection, schedule: Q01DX011 (ip), vehicle: saline
  T/C: 110 % of control
dose: 40.0 mg/kg/injection, schedule: Q01DX011 (ip), vehicle: carboxymethylcellulose (CMC)
  T/C: 101 % of control
dose: 62.0 mg/kg/injection, schedule: Q01DX011 (ip), vehicle: saline
  T/C: 108 % of control
dose: 80.0 mg/kg/injection, schedule: Q01DX011 (ip), vehicle: carboxymethylcellulose (CMC)
  T/C: 52 % of control
[1]
  T/C: 89 % of control
[2]
  T/C: 60 % of control

## CCC(C)C(NN)C(=O)O (centres undefined)
dose: 2.5 mg/kg/injection, schedule: Q01DX011 (ip), vehicle: other
  T/C: 84 % of control
dose: 5.0 mg/kg/injection, schedule: Q01DX011 (ip), vehicle: other
  T/C: 104 % of control
dose: 10.0 mg/kg/injection, schedule: Q01DX011 (ip), vehicle: other
  T/C: 81 % of control
dose: 20.0 mg/kg/injection, schedule: Q01DX011 (ip), vehicle: other
  T/C: 89 % of control
dose: 40.0 mg/kg/injection, schedule: Q01DX011 (ip), vehicle: other
  T/C: 83 % of control
dose: 50.0 mg/kg/injection, schedule: Q01DX011 (ip), vehicle: other
  T/C: 21 % of control

## N#C[C@@H]1C2C=CC(CC2)[C@H]1C#N
dose: 0.5 mg/kg/injection, schedule: Q01DX011 (ip), vehicle: carboxymethylcellulose (CMC)
  T/C: 97 % of control
dose: 1.0 mg/kg/injection, schedule: Q01DX011 (ip), vehicle: carboxymethylcellulose (CMC)
  T/C: 71 % of control
dose: 2.0 mg/kg/injection, schedule: Q01DX011 (ip), vehicle: carboxymethylcellulose (CMC)
  T/C: 83 % of control

## O=C(O)C1(NO)CCCC1
dose: 12.5 mg/kg/injection, schedule: Q01DX011 (ip), vehicle: carboxymethylcellulose (CMC)
  T/C: 98 % of control
[3]
  T/C: 78 % of control
[5]
  T/C: 18 % of control and 34 % of control

## O=c1[nH]cc(F)c(=O)[nH]1
dose: 3.0 mg/kg/injection, schedule: Q01DX011 (ip), vehicle: carboxymethylcellulose (CMC)
  T/C: 84 % of control
dose: 3.3 mg/kg/injection, schedule: Q01DX011 (ip), vehicle: carboxymethylcellulose (CMC)
  T/C: 101 % of control
dose: 6.0 mg/kg/injection, schedule: Q01DX011 (ip), vehicle: carboxymethylcellulose (CMC)
  T/C: 66 % of control and 44 % of control
dose: 6.7 mg/kg/injection, schedule: Q01DX011 (ip), vehicle: carboxymethylcellulose (CMC)
  T/C: 83 % of control
dose: 13.5 mg/kg/injection, schedule: Q01DX011 (ip), vehicle: carboxymethylcellulose (CMC)
  T/C: 69 % of control and 71 % of control
[6]
  T/C: 93 % of control
dose: 27.0 mg/kg/injection, schedule: Q01DX011 (ip), vehicle: carboxymethylcellulose (CMC)
  T/C: 22 % of control and 28 % of control

## CN(C)C1C(=O)C(C(N)=O)=C(O)C2(O)C(=O)C3=C(O)c4c(O)cccc4C(C)(O)C3C(O)C12 (centres undefined)
dose: 19.5 mg/kg/injection, schedule: Q01DX011 (ip), vehicle: carboxymethylcellulose (CMC)
  T/C: 94 % of control
dose: 78.0 mg/kg/injection, schedule: Q01DX011 (ip), vehicle: carboxymethylcellulose (CMC)
  T/C: 115 % of control
dose: 156.0 mg/kg/injection, schedule: Q01DX011 (ip), vehicle: carboxymethylcellulose (CMC)
  T/C: 95 % of control

## COS(C)(=O)=O
dose: 9.0 mg/kg/injection, schedule: Q01DX011 (ip), vehicle: carboxymethylcellulose (CMC)
  T/C: 167 % of control
dose: 9.37 mg/kg/injection, schedule: Q01DX011 (ip), vehicle: saline
  T/C: 116 % of control
[6]
  T/C: 98 % of control
dose: 18.75 mg/kg/injection, schedule: Q01DX011 (ip), vehicle: saline
  T/C: 114 % of control
dose: 37.5 mg/kg/injection, schedule: Q01DX011 (ip), vehicle: saline
  T/C: 85 % of control
[7]
  T/C: 76 % of control
dose: 100.0 mg/kg/injection, schedule: Q01DX011 (ip), vehicle: saline
  T/C: 69 % of control

## C[C@@H]1C[C@@H]([C@H](O)CC2CC(=O)NC(=O)C2)C(=O)[C@@H](C)C1
dose: 4.3 mg/kg/injection, schedule: Q01DX011 (ip), vehicle: carboxymethylcellulose (CMC)
  T/C: 80 % of control
dose: 15.0 mg/kg/injection, schedule: Q01DX011 (ip), vehicle: carboxymethylcellulose (CMC)
  T/C: 31 % of control and 46 % of control

## CCCCCCCCCC(C)(O)C#CC(C)(O)CCCCCCCCC (centres undefined)
dose: 12.0 mg/kg/injection, schedule: Q01DX011 (ip), vehicle: carboxymethylcellulose (CMC)
  T/C: 81 % of control
[3]
  T/C: 82 % of control
[4]
  T/C: 58 % of control and 59 % of control
[5]
  T/C: 55 % of control
dose: 200.0 mg/kg/injection, schedule: Q01DX011 (ip), vehicle: carboxymethylcellulose (CMC)
  T/C: 34 % of control

## O=C1CN(/N=C\c2ccc([N+](=O)[O-])o2)C(=O)N1
dose: 4.7 mg/kg/injection, schedule: Q01DX011 (ip), vehicle: carboxymethylcellulose (CMC)
  T/C: 101 % of control
dose: 9.5 mg/kg/injection, schedule: Q01DX011 (ip), vehicle: carboxymethylcellulose (CMC)
  T/C: 91 % of control and 96 % of control
dose: 19.0 mg/kg/injection, schedule: Q01DX011 (ip), vehicle: carboxymethylcellulose (CMC)
  T/C: 96 % of control and 100 % of control

## CCSCCC(N)C(=O)O (centres undefined)
dose: 10.2 mg/kg/injection, schedule: Q01DX011 (ip), vehicle: carboxymethylcellulose (CMC)
  T/C: 114 % of control
dose: 20.5 mg/kg/injection, schedule: Q01DX011 (ip), vehicle: carboxymethylcellulose (CMC)
  T/C: 80 % of control
dose: 41.0 mg/kg/injection, schedule: Q01DX011 (ip), vehicle: carboxymethylcellulose (CMC)
  T/C: 109 % of control
dose: 82.0 mg/kg/injection, schedule: Q01DX011 (ip), vehicle: carboxymethylcellulose (CMC)
  T/C: 111 % of control

## Nc1nc2n[nH]nc2c(=O)[nH]1
dose: 11.12 mg/kg/injection, schedule: Q01DX011 (ip), vehicle: carboxymethylcellulose (CMC)
  T/C: 158 % of control
dose: 11.8 mg/kg/injection, schedule: Q01DX011 (ip), vehicle: other
  T/C: 190 % of control
dose: 22.7 mg/kg/injection, schedule: Q01DX011 (ip), vehicle: other
  T/C: 189 % of control
dose: 45.5 mg/kg/injection, schedule: Q01DX011 (ip), vehicle: other
  T/C: 152 % of control
dose: 89.0 mg/kg/injection, schedule: Q01DX011 (ip), vehicle: carboxymethylcellulose (CMC)
  T/C: 44 % of control
dose: 89.0 mg/kg/injection, schedule: Q01DX011 (ip), vehicle: other
  T/C: 123 % of control

## CCOC(=O)NC
[7]
  T/C: 114 % of control
dose: 150.0 mg/kg/injection, schedule: Q01DX011 (ip), vehicle: saline
  T/C: 98 % of control
dose: 300.0 mg/kg/injection, schedule: Q01DX011 (ip), vehicle: saline
  T/C: 75 % of control
dose: 500.0 mg/kg/injection, schedule: Q01DX011 (ip), vehicle: saline
  T/C: 48 % of control
dose: 600.0 mg/kg/injection, schedule: Q01DX011 (ip), vehicle: saline
  T/C: 53 % of control
dose: 750.0 mg/kg/injection, schedule: Q01DX011 (ip), vehicle: saline
  T/C: 37 % of control

## C1CC[N-]CC1.C1CC[N-]CC1.C1CC[N-]CC1.C1CC[N-]CC1.[Cl][Co][Cl]
[4]
  T/C: 160 % of control
